Assay results taken from the supplement of paper PMC9663587.

How the values were obtained:
[1] = compound: O=C(c1cc(Cc2n[nH]c(=O)c3ccccc23)ccc1F)N1CCN(C(=O)C2CC2)CC1 [Olaparib/AZD2281]
[2] = compound: CC(C)NC[C@@H](C(=O)N1CCN(c2ncnc3c2[C@H](C)C[C@H]3O)CC1)c1ccc(Cl)cc1 [Ipatasertib/GDC0068]
[3] = compound: COc1cccc2c1C(=O)c1c(O)c3c(c(O)c1C2=O)C[C@@](O)(C(=O)CO)C[C@@H]3O[C@H]1C[C@H](N)[C@H](O)[C@H](C)O1 [Doxorubicin]
[4] = compound: CC(=O)O[C@H]1C(=O)[C@@]2(C)[C@H]([C@H](OC(=O)c3ccccc3)[C@]3(O)C[C@H](OC(=O)[C@H](O)[C@@H](NC(=O)c4ccccc4)c4ccccc4)C(C)=C1C3(C)C)[C@]1(OC(C)=O)CO[C@@H]1C[C@@H]2O [Paclitaxel]
[5] = compound: CN(C)CC[C@H](CSc1ccccc1)Nc1ccc(S(=O)(=O)NC(=O)c2ccc(N3CCN(Cc4ccccc4-c4ccc(Cl)cc4)CC3)cc2)cc1[N+](=O)[O-] [ABT-737]
[6] = compound: CCNC(=O)c1noc(-c2cc(C(C)C)c(O)cc2O)c1-c1ccc(CN2CCOCC2)cc1 [Luminespib/NVP-AUY922]
[7] = compound: Cc1nc(-c2cn3c(n2)-c2ccc(-c4cnn(C(C)(C)C(N)=O)c4)cc2OCC3)n(C(C)C)n1 [Taselisib/GDC0032]
[8] = compound: CCc1cnn2c(NCc3ccc[n+]([O-])c3)cc(N3CCCC[C@H]3CCO)nc12; assay: GR value, 72 h; higher = faster growth (1 = untreated, <0 = killing);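 also: breast cancer and non-malignant breast epithelial lines, nine half-log doses, viable cells counted by Hoechst and LIVE/DEAD dye imaging versus time-zero plates and DMSO controls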
[9] = compound: CC(=O)c1c(C)c2cnc(Nc3ccc(N4CCNCC4)cn3)nc2n(C2CCCC2)c1=O; assay: as above
[10] = compound: CCN1CCN(Cc2ccc(Nc3ncc(F)c(-c4cc(F)c5nc(C)n(C(C)C)c5c4)n3)nc2)CC1; assay: as above
[11] = compound: CN(C)C/C=C/C(=O)Nc1ccc(O[C@@H]2CCC[C@@H](Nc3ncc(Cl)c(-c4c[nH]c5ccccc45)n3)C2)cc1 [BSJ-01-175]
[12] = compound: T1, CN1CC[C@H](c2c(O)cc(O)c3c(=O)cc(-c4ccccc4Cl)oc23)[C@H](O)C1 [Flavopiridol]
[13] = compound: C=CC(=O)Nc1ccc(C(=O)Nc2[nH]nc3c2CN(C(=O)N[C@H](CN(C)C)c2ccccc2)C3(C)C)cc1 [YKL-5-124]; assay: GR value, 72 h; higher = faster growth (1 = untreated, <0 = killing);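 also: breast cancer and non-malignant breast epithelial lines, nine half-log doses, viable cells counted by Hoechst and LIVE/DEAD dye imaging versus time-zero plates and DMSO controls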
[14] = compound: CC(=O)c1c(C)c2cnc(Nc3ccc(N4CCN(CCOCCOCCOCCNC(=O)COc5cccc6c5C(=O)N(C5CCC(=O)NC5=O)C6=O)CC4)cn3)nc2n(C2CCCC2)c1=O [BSJ-03-123]; assay: as above
[15] = compound: CN(C)C/C=C/C(=O)Nc1ccc(C(=O)N2CCC[C@@H](Nc3ncc(Cl)c(-c4c[nH]c5ccccc45)n3)C2)cc1 [THZ531]; assay: as above
[16] = compound: CN(C)C(=O)c1cc2cnc(Nc3ccc(N4CCNCC4)cn3)nc2n1C1CCCC1 [LEE011/Ribociclib]; assay: as above
[17] = compound: T1, Flavopiridol; assay: as above
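For GR50, 72 h in this document: breast cancer and non-malignant breast epithelial cell lines, Deep Dye Drop or Dye Drop imaging, nine half-log doses, GR normalized to time-zero plates and DMSO-only controls.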

## HCC1500
[1]
  GR50, 72 h: 6.33 µM
[2]
  GR50, 72 h: > 10 µM
[3]
  GR50, 72 h: 0.0163 µM
[4]
  GR50, 72 h: 0.00382 µM
[5]
  GR50, 72 h: 0.00851 µM
[6]
  GR50, 72 h: 0.00847 µM
[7]
  GR50, 72 h: 1.88 µM
[8]; 0.0001 µM
  GR value: 1.07 GR
[8]; 0.0003162 µM
  GR value: 0.975 GR
[8]; 0.001 µM
  GR value: 1.06 GR
[8]; 0.003162 µM
  GR value: 1.06 GR
[8]; 0.01 µM
  GR value: 0.674 GR
[8]; 0.03162 µM
  GR value: -0.172 GR
[8]; 0.1 µM
  GR value: -0.576 GR
[8]; 0.3162 µM
  GR value: -0.534 GR
[8]; 1 µM
  GR value: -0.601 GR
[9]; 0.0003162 µM
  GR value: 1.03 GR
[9]; 0.001 µM
  GR value: 1.16 GR
[9]; 0.003162 µM
  GR value: 1.19 GR
[9]; 0.01 µM
  GR value: 1.11 GR
[9]; 0.03162 µM
  GR value: 0.838 GR
[9]; 0.1 µM
  GR value: 0.676 GR
[9]; 0.3162 µM
  GR value: 0.581 GR
[9]; 1 µM
  GR value: 0.709 GR
[9]; 3.162 µM
  GR value: 0.592 GR
[10]; 0.001 µM
  GR value: 1.1 GR
[10]; 0.003162 µM
  GR value: 0.961 GR
[10]; 0.01 µM
  GR value: 0.802 GR
[10]; 0.03162 µM
  GR value: 0.592 GR
[10]; 0.1 µM
  GR value: 0.533 GR
[10]; 0.3162 µM
  GR value: 0.701 GR
[10]; 1 µM
  GR value: 0.494 GR
[10]; 3.162 µM
  GR value: 0.395 GR
[10]; 10 µM
  GR value: 0.195 GR

## CAL51
[1]
  GR50, 72 h: 7.19 µM
[2]
  GR50, 72 h: 2.98 µM
[11]
  GR50, 72 h: 0.432 µM
[3]
  GR50, 72 h: 0.00858 µM
[4]
  GR50, 72 h: 0.00417 µM
[5]
  GR50, 72 h: > 10 µM
[6]
  GR50, 72 h: 0.00639 µM
[12]
  GR50, 72 h: 0.2 µM
[7]
  GR50, 72 h: 0.134 µM
[13]; 0.001 µM
  GR value: 0.748 GR
[13]; 0.003162 µM
  GR value: 0.59 GR
[13]; 0.01 µM
  GR value: 0.391 GR
[13]; 0.03162 µM
  GR value: 0.327 GR
[13]; 0.1 µM
  GR value: 0.314 GR
[13]; 0.3162 µM
  GR value: 0.236 GR
[13]; 1 µM
  GR value: 0.216 GR
[13]; 3.162 µM
  GR value: 0.165 GR
[13]; 10 µM
  GR value: -0.0011 GR
[14]; 0.001 µM
  GR value: 0.894 GR
[14]; 0.003162 µM
  GR value: 0.912 GR
[14]; 0.01 µM
  GR value: 0.915 GR
[14]; 0.03162 µM
  GR value: 0.898 GR
[14]; 0.1 µM
  GR value: 0.895 GR
[14]; 0.3162 µM
  GR value: 0.818 GR
[14]; 1 µM
  GR value: 0.763 GR
[14]; 3.162 µM
  GR value: 0.76 GR
[14]; 10 µM
  GR value: 0.121 GR
[8]; 0.0001 µM
  GR value: 0.999 GR
[8]; 0.0003162 µM
  GR value: 0.954 GR
[8]; 0.001 µM
  GR value: 1.03 GR
[8]; 0.003162 µM
  GR value: 0.974 GR
[8]; 0.01 µM
  GR value: 0.831 GR
[8]; 0.03162 µM
  GR value: -0.218 GR
[8]; 0.1 µM
  GR value: -0.356 GR
[8]; 0.3162 µM
  GR value: -0.355 GR
[8]; 1 µM
  GR value: -0.341 GR
[15]; 0.0001 µM
  GR value: 0.973 GR
[15]; 0.0003162 µM
  GR value: 0.962 GR
[15]; 0.001 µM
  GR value: 0.912 GR
[15]; 0.003162 µM
  GR value: 0.96 GR
[15]; 0.01 µM
  GR value: 1.01 GR
[15]; 0.03162 µM
  GR value: 0.937 GR
[15]; 0.1 µM
  GR value: 0.904 GR
[15]; 0.3162 µM
  GR value: 0.786 GR
[15]; 1 µM
  GR value: 0.543 GR
[16]; 0.001 µM
  GR value: 0.899 GR
[16]; 0.003162 µM
  GR value: 0.874 GR
[16]; 0.01 µM
  GR value: 0.808 GR
[16]; 0.03162 µM
  GR value: 0.772 GR
[16]; 0.1 µM
  GR value: 0.693 GR
[16]; 0.3162 µM
  GR value: 0.658 GR
[16]; 1 µM
  GR value: 0.631 GR
[16]; 3.162 µM
  GR value: 0.55 GR
[16]; 10 µM
  GR value: 0.396 GR
[17]; 0.0001 µM
  GR value: 0.98 GR
[17]; 0.0003162 µM
  GR value: 0.944 GR
[17]; 0.001 µM
  GR value: 0.962 GR
[17]; 0.003162 µM
  GR value: 0.909 GR
[17]; 0.01 µM
  GR value: 0.842 GR
[17]; 0.03162 µM
  GR value: 0.887 GR
[17]; 0.1 µM
  GR value: 0.708 GR
[17]; 0.3162 µM
  GR value: 0.353 GR
[17]; 1 µM
  GR value: -0.099 GR
[9]; 0.0003162 µM
  GR value: 0.968 GR
[9]; 0.001 µM
  GR value: 1.02 GR
[9]; 0.003162 µM
  GR value: 0.982 GR
[9]; 0.01 µM
  GR value: 0.911 GR
[9]; 0.03162 µM
  GR value: 0.783 GR
[9]; 0.1 µM
  GR value: 0.646 GR
[9]; 0.3162 µM
  GR value: 0.516 GR
[9]; 1 µM
  GR value: 0.446 GR
[9]; 3.162 µM
  GR value: 0.354 GR
[10]; 0.001 µM
  GR value: 0.966 GR
[10]; 0.003162 µM
  GR value: 0.882 GR
[10]; 0.01 µM
  GR value: 0.752 GR
[10]; 0.03162 µM
  GR value: 0.569 GR
[10]; 0.1 µM
  GR value: 0.501 GR
[10]; 0.3162 µM
  GR value: 0.365 GR
[10]; 1 µM
  GR value: 0.207 GR
[10]; 3.162 µM
  GR value: -0.124 GR
[10]; 10 µM
  GR value: -0.46 GR
